The values below come from paper PMC5772355 (Scientific Reports, 2018).

pIC50: −log10 of the molar value.

Experiment [1] deals with T1, xCT (SLC7A11), system xc− (Mus musculus, UniProt Q9WTR6).
T1 construct: coding region of murine xCT, stably overexpressed in MEF; with 4F2 heavy chain (SLC3A2)
T1 sequence (Q9WTR6 1-502): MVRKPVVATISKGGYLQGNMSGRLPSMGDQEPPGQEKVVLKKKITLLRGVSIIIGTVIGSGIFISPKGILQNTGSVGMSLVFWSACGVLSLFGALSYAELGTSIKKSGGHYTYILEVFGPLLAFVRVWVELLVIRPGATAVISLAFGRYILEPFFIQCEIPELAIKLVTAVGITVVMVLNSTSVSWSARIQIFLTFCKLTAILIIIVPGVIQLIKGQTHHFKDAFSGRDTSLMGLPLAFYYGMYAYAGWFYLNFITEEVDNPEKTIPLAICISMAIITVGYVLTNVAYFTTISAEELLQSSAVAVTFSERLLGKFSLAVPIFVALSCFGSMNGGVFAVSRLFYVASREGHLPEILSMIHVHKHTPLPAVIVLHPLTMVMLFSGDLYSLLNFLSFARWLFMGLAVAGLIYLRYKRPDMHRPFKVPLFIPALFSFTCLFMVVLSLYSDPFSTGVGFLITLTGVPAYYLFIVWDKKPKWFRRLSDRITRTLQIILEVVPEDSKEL
T1 sequence (P10852 1-526 partner): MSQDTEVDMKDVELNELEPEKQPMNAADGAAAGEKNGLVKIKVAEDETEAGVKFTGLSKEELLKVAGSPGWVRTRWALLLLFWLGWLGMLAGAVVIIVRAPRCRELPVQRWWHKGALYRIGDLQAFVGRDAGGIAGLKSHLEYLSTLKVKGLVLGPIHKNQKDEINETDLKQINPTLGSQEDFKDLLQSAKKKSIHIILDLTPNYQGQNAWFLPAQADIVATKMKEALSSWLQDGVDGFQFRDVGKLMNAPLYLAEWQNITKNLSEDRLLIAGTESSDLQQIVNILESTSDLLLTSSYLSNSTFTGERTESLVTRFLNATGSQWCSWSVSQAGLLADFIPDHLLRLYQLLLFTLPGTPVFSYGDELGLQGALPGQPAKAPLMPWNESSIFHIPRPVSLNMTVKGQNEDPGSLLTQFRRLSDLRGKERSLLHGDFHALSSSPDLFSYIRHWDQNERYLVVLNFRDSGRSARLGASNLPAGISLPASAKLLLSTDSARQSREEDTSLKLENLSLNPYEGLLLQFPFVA
As to the kind of experiment: inhibition of L-[…]cystine uptake in xCT-overexpressing MEF. The format is cell-based.

The target of experiment [2] is T1, xCT (SLC7A11), system xc−. The description is as above. The format is cell-based. This is another data set of the same source.

A word on the pIC50: it is −log10 of the IC50, conventionally taken in molar units. Read a low pIC50 as a high IC50. `N[C@@H](Cn1oc(=O)[nH]c1=O)C(=O)O` [QA, quisqualic acid]: the pIC50 in experiment [1] was 4.81.
In experiment [1], `CCOc1ccccc1-n1c(C(C)N2CCN(C(=O)COc3ccc(Cl)cc3)CC2)nc2ccccc2c1=O` (stereo not shown) [erastin] showed a pIC50 of 5.85.
In turn, `O=C(O)c1cc(/N=N/c2ccc(S(=O)(=O)Nc3ccccn3)cc2)ccc1O` [SAS, sulfasalazine] showed a pIC50 in experiment [1] of 4.58.
In general, inhibition refers to the share of the control response that was lost under treatment. Lower therefore signals little suppression. Take `N[C@@H](CCC(=O)O)C(=O)O` [Glu, L-glutamate]: in experiment [2], the inhibition at 100 µM was about 50%.
